Test results as given in article PMC2225439, “Amyloid as a Depot for the Formulation of Long-Acting Drugs” (PLoS Biology, 2008).

How the values were obtained:
[1] = Thio T binding (amyloid fibril formation); format: physicochemical; set-up: key to Thio T Binding: b, binding; n, not binding; settings: 1 mg/ml in 5% D-mannitol, 0.01% sodium azide
Experimental: The kinetics of fibril formation in vitro is generally a slow process over several days or weeks, and can be monitored by the increase of fluorescence intensity of the cross-β-sheet–sensitive dye, Thio T [15]. Thio T fluorescence is thereby insignificant during the initial incubation period of amyloid aggregation due to the nonexistence of Thio T–sensitive β-sheet aggregates. After the initial phase, a time-dependent increase of fluorescence intensity is observed until a maximum intensity is reached, at which time maximal fibril formation has occurred. […] For the Thio T binding studies, all GnRH analogs were incubated at room temperature at a concentration of 1 mg/ml in 5% D-mannitol, conditions identical to the formulation used in the animal experiments. In addition, 0.01% sodium azide was added. The Thio T fluorescence was monitored daily for all analogs over a period of 21 d (Figure 1).
GnRH analogs were dissolved in a glass tube in 1 ml of 5% D-mannitol and 0.01% sodium azide at a concentration of 1 mg/ml. The GnRH analogs were then incubated at room temperature without stirring. The fibril formation was monitored by EM, CR, and time-resolved by Thio T binding studies. Three independent experiments were performed for each sample.
A 10-μl aliquot of peptide sample was diluted into 500 μl of water with 5% D-mannitol containing 0.01% (w/v) sodium azide. The solution was mixed with 10 μl of 1 mM Thio T prepared in the same solution. Fluorescence was measured immediately after addition of Thio T. The experiment was measured on a spectrofluorimeter (Photon Technology International) with excitation at 450 nm and emission at 482 nm. The fluorescence intensity at 482 nm was plotted against incubation time (day). A rectangular 10-mm quartz microcuvette was used. Three independent experiments were performed for each sample.

[2] = Peptide release from amyloid (dialysis experiment); settings: 3.5-kDa MWCO, room temperature, 35 d
Experimental: Although amyloid fibrils are very stable, they must follow thermodynamic equilibrium conditions between fibril and monomer. […] A total of 200 μl of 30-d-old GnRH analog (in) was dialyzed 4 ml of 5% D-mannitol (out). A 3.5-kDa cutoff, which is twice the size of the peptides studied, was chosen to ensure that the released particles are most likely monomeric. The peptide release and the remaining aggregates were monitored by fluorescence over 35 d at room temperature.
A 200-μl aliquot of aged GnRH in solution conditions given above was transferred into a 0.6-ml Eppendorf tube with a hole in the cap. To study the effect of heparin on peptide release, a mixture of hormone analog and heparin (1:1 v/v) was incubated overnight in parallel with a half-diluted peptide fibril sample in 5% D-mannitol and 0.01% sodium azide. The hole in the cap of the Eppendorf tube was sealed with a 3.5-kDa molecular weight cutoff (MWCO) membrane. Next, the Eppendorf tube was inserted upside down into a 15-ml Falcon tube containing 4 ml of 5% D-mannitol in water and 0.01% sodium azide. Care was taken to make sure that the membrane was exposed to solutions both in and outside and that any bubbles at the membrane interface were removed. The tubes were then incubated at room temperature. To measure the remaining peptide concentration inside the 0.6-ml Eppendorf tube, a 5-μl aliquot was diluted into 500 μl water with 5% D-mannitol, 0.01% sodium azide, and the fluorescence was measured with excitation at 280 nm and emission in the range of 290–500 nm. The excitation slit width was 2 nm, and emission slit width was 11 nm. To determine the peptide concentration outside the membrane in the 15-ml tube, an aliquot of 250 μl of solution was taken from the releasing medium, diluted into 500 μl final volume by 5% D-mannitol, 0.01% sodium azide, and fluorescence was measured. Following spectra recording, the dialysis system was reassembled as described above. […] The normalized intensity maxima from inside and outside the membrane were plotted as a function of time and fit by an exponential function to extract the half-life of the fibrils and the K off, respectively. […] The extracted half-life, t 1/2, is the time taken, during which the fluorescence signal inside the 0.6-ml Eppendorf tube drops by 50%.

[3] = tested on: plasma luteinizing hormone (LH) levels; settings: duration of action class as listed in Table 1; castrated male rat assay; ref Tables S1 and S2; cited from earlier work
Excerpt: Table 1 Biochemical and Biophysical Properties of Aggregates By GnRH-Analogs | column: Action || Supplement pbio.0060017.st001.doc, table 1: Table S1: Short acting GnRH analogs with their duration of action | column: Duration of action^b || Supplement pbio.0060017.st002.doc, table 1: Table S2: Long acting GnRH analogs with their duration of action | column: Duration of action^b || (+ 2 further places)

Thio T Binding ([1]; room temperature without stirring, monitored daily over 21 d, fluorescence ex 450 nm / em 482 nm, three independent experiments): b | KD ([2]; dissociation constant of the aggregates = final monomer concentration, 200 μl of 30-d-old analog dialyzed against 4 ml 5% D-mannitol, fluorescence ex 280 nm): 8 µM | t1/2 ([2]; half-life of fibrils: time in which fluorescence inside drops by 50%, dialysis of 30-d-old analog, 5% D-mannitol, exponential fit, 2 d = intrinsic diffusion of monomer): 35 days
Substance: Ac-DNal-DCpa-Agl(Nic)-Ser-Aph(Ac)-DAph(Ac)-Leu-ILys-Pro-DAla-NH2 [L20]
Thio T binding (in words) ([1]; room temperature, 21 d): bind significantly more Thio T during the entire experiment | Action [3]: intermediate
